Test results reported in patent US4983608A, “N-substituted-4-pyrimidinamines and pyrimidinediamines” (Hoechst-Roussell Pharmaceuticals, Inc., priority 1989, dated 1991).

Columns and labels:
Type in all cases: in vivo
[1] = test system: phenyl-para-quinone writhing; test: phenyl-para-quinone writhing assay in mice (analgesia); conditions: Mus musculus, sc, 20 mg/kg s.c., read-out: Analgesic Activity % Inhibition of Writhing at a Screening Dose of 20 mg/kg s.c.
Method: Exptl. Biol. Med., 95, 729 (1957)]. Presented in Table I is the analgesic effect of some of the compounds of the invention, expressed as the percent decrease in writhing at a given dose (20 mg/kg s.c.).

[2] = test system: Scopolamine Induced Memory Deficit; test: Dark Avoidance Assay (reversal of scopolamine induced memory deficit); conditions: mice, retest after 24 hours
Method: The N-substituted-4-pyrimidinamines and pyrimidinediamines of the present invention are also useful in the treatment of various memory dysfunctions such as Alzheimer's disease.
In this assay, mice are tested for their ability to remember an unpleasant stimulus for a period of 24 hours. A mouse is placed in a chamber that contains a dark compartment; a strong incandescent light drives it to the dark compartment, where an electric shock is administered through metal plates on the floor. The animal is removed from the testing apparatus and tested again, 24 hours later, for the ability to remember the electric shock.
If scopolamine, an anticholinergic that is known to cause memory impairment is administered before an animal's initial exposure to the test chamber, the animal re-enters the dark compartment shortly after being placed in the test chamber 24 hours later. This effect of scopolamine is blocked by an active test compound, resulting in a greater interval before re-entry into the dark compartment.
The results for an active compound are expressed as the percent of a group of animals in which the effect of scopolamine is blocked, as manifested by an increased interval between being placed in the test chamber and re-entering the dark compartment.

[3] = test system: phenyl-para-quinone writhing; test: phenyl-para-quinone writhing assay in mice (analgesia); conditions: 3.9 mg/kg s.c. (standard)

SMILES | inhibition in vivo at 20 mg/kg [1] [%] | further results
CN(c1ccnc(Cl)n1)n1cccc1 [2-Chloro-N-methyl-N-(1H-pyrrol-1-yl)-4-pyrimidinamine] | 38 | 
N#Cc1cncnc1Nn1ccc2ccccc21 [5-Cyano-N-(1H-indol-1-yl)-4-pyrimidinamine] | 44 | % of Animals with Scopolamine Induced Memory Deficit Reversed ([2]; 1.25 mg/kg s.c. by body weight): 27%
CCCN(c1ncncc1C#N)n1ccc2ccccc21 [5-Cyano-N-(1H-indol-1-yl)-N-propyl-4-pyrimidinamine] | 75 | 
CCCN(c1cc(Cl)ncn1)n1ccc2ccccc21 [6-Chloro-N-(1H-indol-1-yl)-N-propyl-4-pyrimidinamine] | 40 | % of Animals with Scopolamine Induced Memory Deficit Reversed ([2]; 1.25 mg/kg s.c. by body weight): 47%
Clc1cc(Nn2cccc2)ncn1 [6-Chloro-N-(1H-pyrrol-1-yl)-4-pyrimidinamine] | 39 | 
Cc1cn(Nc2cc(Cl)ncn2)c2ccccc12 [6-Chloro-N-(3-methyl-1H-indol-1-yl)-4-pyrimidinamine] | 45 | % of Animals with Scopolamine Induced Memory Deficit Reversed ([2]; 1.25 mg/kg s.c. by body weight): 33%
CCCN(c1cc(Cl)ncn1)n1cc(C)c2ccccc21 [6-Chloro-N-(3-methyl-1H-indol-1-yl)-N-propyl-4-pyrimidinamine] | 36 | 
CN(c1cc(Cl)ncn1)n1cccc1 [6-Chloro-N-methyl-N-(1H-pyrrol-1-yl)-4-pyrimidinamine] | 42 | 
CCCN(c1cc(Cl)ncn1)n1cccc1 [6-Chloro-N-propyl-N-(1H-pyrrol-1-yl)-4-pyrimidinamine] | 46 | 
Cc1cn(Nc2cc(Nn3cc(C)c4ccccc43)ncn2)c2ccccc12 [N,N'-bis(3-methyl-1H-indol-1-yl)-4,6-pyrimidinediamine] | 33 | 
CCCN(c1ccncn1)n1ccc2ccccc21 [N-(1H-Indol-1-yl)-N-propyl-4-pyrimidinamine] | 58 | % of Animals with Scopolamine Induced Memory Deficit Reversed ([2]; 1.25 mg/kg s.c. by body weight): 27%
c1ccn(Nc2ccncn2)c1 [N-(1H-pyrrol-1-yl)-4-pyrimidinamine, N-(1H-Pyrrol-1-yl)-4-pyrimidinamine] | 30 | 
Cc1cn(Nc2ccncn2)c2ccccc12 [N-(3-methyl-1H-indol-1-yl)-4-pyrimidinamine] |  | % of Animals with Scopolamine Induced Memory Deficit Reversed ([2]; 1.25 mg/kg s.c. by body weight): 20%
CCCN(c1ccncn1)n1cc(C)c2ccccc21 [N-(3-methyl-1H-indol-1-yl)-N-propyl-4-pyrimidinamine] | 60 | 
c1ccc2c(c1)c1ccccc1n2Nc1ccncn1 [N-(pyrimidin-4-yl)-9H-carbazol-9-amine, N-(Pyrimidin-4-yl)-9H-carbazol-9-amine] | 65 | 
CC[C@@H]1C(=O)OC[C@@H]1Cc1cncn1C [Pilocarpine, reference compound] |  | % of Animals with Scopolamine Induced Memory Deficit Reversed ([2]; 5.00 mg/kg s.c. by body weight (standard)): 23%
CCC(=O)O[C@](Cc1ccccc1)(c1ccccc1)[C@H](C)CN(C)C [Propoxyphene] |  | Analgesic Activity % Inhibition of Writhing [3]: 50%
